Columns and labels:
[1] = target: T1, Stat1 (Mus musculus, UniProt P42225); experiment: In vitro Stat1 DNA-binding activity assay, EMSA with hSIE or MGFe probe
T1 construct: Nuclear extract preparation from NIH3T3 stimulated by rhIL-6, NIH3T3/hEGFR stimulated by rhEGF; endogenous in cells; host or cells: NIH3T3/hEGFR fibroblasts stimulated with rhEGF (nuclear extract)
T1 sequence (P42225 2-749 limits assumed): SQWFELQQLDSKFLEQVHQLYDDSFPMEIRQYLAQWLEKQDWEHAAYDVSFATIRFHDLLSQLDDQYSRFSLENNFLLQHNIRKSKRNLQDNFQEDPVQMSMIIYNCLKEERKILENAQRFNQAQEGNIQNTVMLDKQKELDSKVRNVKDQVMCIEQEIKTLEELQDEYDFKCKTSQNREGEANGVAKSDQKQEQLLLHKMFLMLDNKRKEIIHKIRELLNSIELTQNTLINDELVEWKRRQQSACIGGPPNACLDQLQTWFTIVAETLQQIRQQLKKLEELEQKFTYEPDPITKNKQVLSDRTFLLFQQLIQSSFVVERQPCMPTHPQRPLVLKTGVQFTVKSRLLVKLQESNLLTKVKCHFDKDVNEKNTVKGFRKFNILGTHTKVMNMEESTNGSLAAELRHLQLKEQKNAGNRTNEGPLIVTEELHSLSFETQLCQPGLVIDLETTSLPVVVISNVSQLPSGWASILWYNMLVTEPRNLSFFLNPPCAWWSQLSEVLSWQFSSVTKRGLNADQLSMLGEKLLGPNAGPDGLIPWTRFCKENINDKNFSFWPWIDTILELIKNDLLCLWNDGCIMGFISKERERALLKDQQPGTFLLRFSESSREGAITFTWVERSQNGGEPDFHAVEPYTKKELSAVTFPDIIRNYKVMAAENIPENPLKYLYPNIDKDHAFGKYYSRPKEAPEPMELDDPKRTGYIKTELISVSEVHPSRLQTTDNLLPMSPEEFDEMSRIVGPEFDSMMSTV
Procedure: FIGS. 1A-1E. Inhibition of in vitro Stat3 DNA-binding activity by a platinum complex. Nuclear extracts or cell lysates containing activated Stat1, Stat3 and Stat5, or E2F1 prepared from NIH3T3/hEGFR that are stimulated with EGF or Sf-9 insect cells that are infected with baculovirus expressing Stat1, Stat3, Stat5, or E2F1, respectively, were treated with or without the indicated concentrations of platinum complex, PLATINUM-401 or Cisplatin, for 30 min at room temperature prior to incubation with radiolabeled oligonucleotide probes, and subjected to EMSA analysis. (FIG. 1A) (i) Stat1 and Stat3 binding activities to hSIE probe, (ii) Stat1 and Stat5 binding activities to MGFe probe, and (iii) plot of % oligonucleotide probe-STAT:STAT complexes versus concentration of PLATINUM-401. […] Positions of STAT: STAT-DNA complexes in gel are labeled. In (A) to (C), the control lanes represent DMSO (vehicle)-treatment.
Nuclear extract preparation and gel shift assays—Nuclear extract preparation from NIH3T3 stimulated by rhIL-6, NIH3T3/hEGFR stimulated by rhEGF, v-Src-transformed fibroblasts (NIH3T3/v-Src) or tumor cell lines and electrophoretic mobility shift assay were carried out as previously described (Turkson et al., 1998; Garcia et al., 1997; Yu et al., 1995). The ^32P-labeled oligonucleotide probes used are hSIE (high affinity sis-inducible element from the c-fos gene, m67 variant, 5′-[…]) (SEQ ID NO:1) that binds Stat1 and Stat3 (Garcia et al., 1997; Wagner et al., 1990) and MGFe (mammary gland factor element from the bovine β-casein gene promoter, 5′-AGATTTCTAGGAATTCAA) (SEQ ID NO:2) for Stat1 and Stat5 binding (49,50). Except where indicated, inhibitor compound was pre-incubated with the nuclear extract for 30 min at room temperature prior to incubation with radiolabeled probe.
Compounds from the NCI 2000 diversity set were screened for inhibition of Stat3 signaling in an in vitro DNA-binding activity assay based on analysis by electrophoretic mobility shift assay (EMSA). […]

[2] = tested on: malignant cells harboring constitutively-active Stat3; experiment: Ki67 proliferation index by immunohistochemistry; assay type: cell-based
Procedure: FIGS. 5A and 5B. Evaluation for effects of PLATINUM-401 on cellular constitutive Stat3 activation and cell proliferation. Normal or malignant cells were treated with or without PLATINUM-401 and nuclear extracts were prepared for Stat3 DNA-binding activity assay with hSIE probe, or cells were processed for nuclear Ki67 immunohistochemistry. (FIG. 5A) EMSA analysis of Stat3 DNA-binding activity; (FIG. 5B) Graphical representations of quantified nuclear staining of Ki-67 proliferation index. Stat3:Stat3-DNA complexes in gels are labeled. The Ki-67 proliferation indexes were calculated as the percent positive tumor cells relative to the total number of cells. […]
Immunohistochemistry—The indirect peroxidase-antiperoxidase test was performed on cytospins prepared from cell lines (control and treated). […] The presence of Ki-67 nuclear staining was calculated as percent positive tumor cells in relation to the total number of cells.
The inventors further examined the biological effects of PLATINUM-401 and determined whether any changes might correlate with the inhibition of constitutively-active Stat3. […]
Changes in cell proliferation induced by treatment with PLATINUM-401 were assayed in terms of Ki67 proliferation index by immunohistochemistry. The presence of Ki-67 nuclear staining was calculated as the percent positive tumor cells in relation to the total number of cells.

Structure (SMILES): CC(O)CN1CCN(CC(C)O)CC1 (stereo not drawn) [PLATINUM-401]
- IC50 [1]: 4.1 µM
- effect on DNA-binding activity of Stat1:Stat1 homodimer ([1]; pre-incubated 30 min before probe): to a lesser extent
- Ki67 nuclear staining [2]: significant decreases

From patent US11571418B2, “Platinum compounds that inhibit constitutive STAT3 signaling and induce cell cycle arrest and apoptosis of malignant cells” (H. LEE MOFFITT CANCER CENTER AND RESEARCH INSTITUTE, INC., priority 2011, dated 2023)
